This test has as its target Genome polyprotein (Hepatitis C virus genotype 3a (isolate NZL1) (HCV), UniProt Q81258). Briefly: Inhibition Assay: HCV polymerase inhibition assay: HCV polymerase reactions were carried out using a modified mothod of Howe et al., Antimicrobial Agents and Chemotherapy 2004 48(12): 4813-4821.

By IC50 is commonly meant the concentration that inhibits the measured activity by half.

Chain of Genome polyprotein (Q81258 2431-3021 limits assumed): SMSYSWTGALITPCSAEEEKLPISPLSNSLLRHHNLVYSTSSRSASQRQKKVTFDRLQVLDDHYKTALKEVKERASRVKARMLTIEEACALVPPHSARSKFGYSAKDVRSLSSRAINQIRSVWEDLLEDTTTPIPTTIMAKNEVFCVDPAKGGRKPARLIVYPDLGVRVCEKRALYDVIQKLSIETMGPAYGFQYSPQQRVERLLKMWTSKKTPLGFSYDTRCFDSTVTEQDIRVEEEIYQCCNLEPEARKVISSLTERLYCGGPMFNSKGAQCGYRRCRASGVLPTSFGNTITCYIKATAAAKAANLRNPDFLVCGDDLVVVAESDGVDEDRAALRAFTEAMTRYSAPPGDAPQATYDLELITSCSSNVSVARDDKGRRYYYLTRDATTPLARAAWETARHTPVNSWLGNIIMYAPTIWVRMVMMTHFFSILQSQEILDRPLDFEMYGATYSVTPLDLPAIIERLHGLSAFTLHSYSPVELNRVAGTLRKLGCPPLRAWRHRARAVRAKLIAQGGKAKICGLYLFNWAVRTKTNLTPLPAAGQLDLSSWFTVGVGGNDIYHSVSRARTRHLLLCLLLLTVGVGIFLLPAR

`CNC(=O)c1c2cc(C3CC3)c(N(CCCNC(=O)c3ncoc3C)S(C)(=O)=O)cc2nn1-c1ccc(Br)cc1` came in with an IC50 of 30 nM.
